Reference: patent US12642803B2, “Pharmaceutical aqueous formulation comprising 1-(4-{[4-(dimethylamino)piperidin-1-yl]carbonyl}phenyl)-3-[4-(4,6-dimorpholin-4-yl-1,3,5-triazin-2-yl)phenyljurea” (PFIZER INC., priority 2017, dated 2026)

Tests used:
[1] = Chemical and physical storage stability of the crystalline free base; assay type: physicochemical; conditions: crystalline form, 25° C. and 60% Relative Humidity (RH)
Procedure: (§1) 1-(4-{[4-(Dimethylamino)piperidin-1-yl]carbonyl}phenyl)-3-[4-(4,6-dimorpholin-4-yl-1,3,5-triazin-2-yl)phenyl]urea may be prepared in crystalline form and is chemically and physically stable at 25° C. and 60% Relative Humidity (RH) for up to 3 years in this form.

[2] = Visual analysis (European Pharmacopoeia Method 2.9.20) and OPM analysis for crystallites or particles (clear solution); assay type: physicochemical; conditions: for Solution concentration at which the necessary clear solutions are not obtained, or are not obtained consistently: pH required for intravenous administration
Excerpt: A “clear solution” is defined herein as a visually clear solution, which may bear a solution opalescence, that is essentially free from any visible particulates that can be observed on a visual inspection. Generally, if any particulate matter is observed, the formulation is not suitable for intravenous administration and should not be utilised as occlusion of blood vessels may occur. Accordingly, in view of the qualitative nature of the visual test, the term “essentially free from any visible particulates” is usually applied when no visible particulate matter is observed.
The visual inspection can be conducted in accordance with the method defined in European Pharmacopoeia Method 2.9.20 entitled “Particulate contamination: visible particles”. This method determines particulate contamination of injections and infusions by extraneous, mobile, undissolved particles, other than gas bubbles, that may be present in the solutions. […]
A sample of the formulation was analysed in accordance with the visual method defined in European Pharmacopoeia Method 2.9.20 (using a Verivide (trade mark) light cabinet and a light meter reading of 3250 lux against a matt black panel and a white panel) to determine if crystallites or particles were present. […]
A sample of the formulation was placed on a clean glass microscopy slide and covered with a glass cover slip. It was then analysed by OPM using both non-polarised and cross-polarised light under a Nikon LV 100POL (trade mark) microscope with a 10× magnification lens and a 10× magnification eyepiece to determine if crystallites or particles were present. The image was recorded using a DFK 23UP031 TIS USB 3.0 CMOS (trade mark) Colour Industrial Camera 5MP 1/2,5″ and image capture software. […]
These Examples were analysed by the visual method defined in European Pharmacopoeia Method 2.9.20 and the OPM method both as described in Example 1.
The Examples shown in the following Table were analysed by the visual method defined in European Pharmacopoeia Method 2.9.20 and the OPM method both as described in Example 1. […]

[3] = only with lactic acid and orthophosphoric acid, of ten acids tested; WO2016/097949; cited from earlier work
[4] = Water solubility of the free base; assay type: physicochemical; conditions: for an aqueous solution formulation for intravenous or parenteral administration at the therapeutic dosage levels required
Procedure: as §1

CN(C)C1CCN(C(=O)c2ccc(NC(=O)Nc3ccc(-c4nc(N5CCOCC5)nc(N5CCOCC5)n4)cc3)cc2)CC1 [1-(4-{[4-(Dimethylamino)piperidin-1-yl]carbonyl}phenyl)-3-[4-(4,6-dimorpholin-4-yl-1,3,5-triazin-2-yl)phenyl]urea]
Time for which chemically and physically stable [1]: up to 3 years | Solution concentration at which the necessary clear solutions are not obtained, or are not obtained consistently ([2]; formulations comprising ethanesulphonic acid): ≥ 35 mg/mL | Solution concentration at which the necessary clear solutions are not obtained, or are not obtained consistently ([2]; formulations comprising methanesulphonic acid): ≥ 35 mg/mL | Solution concentration achieved as clear, essentially particle-free solution ([2]; use of methanesulphonic acid and ethanesulphonic acid, free base concentration): up to 30 mg/ml | Concentration achieved as a clear solution [3]: ≥ 3000 µg/mL | Water solubility [4]: insufficiently water soluble
